Values after ≈ are worked out from the molar mass of the structure shown. Non-standard residues stand in square brackets, D forms with d. Residues, ends and D or L forms follow the SMILES beside them. *: point of attachment. NHCH2CH2OH = OCCN*; For = O=C*

This note sets out measurements from ChEMBL document CHEMBL1151454, “Failures in clinical treatment of Staphylococcus aureus Infection with daptomycin are associated with alterations in surface charge, membrane phospholipid asymmetry, and drug binding” (Antimicrob Agents Chemother, 2008).

The subject of data set [1] is Staphylococcus aureus. Kind of data set: Drug binding to daptomycin-nonsusceptible Staphylococcus aureus isolate 703 bloodstream form isolated from patient with endocarditis at 40 ug after 10 mins by radial diffusion assay. Format: ADME, organism-based.
The test system of data set [2] is Staphylococcus aureus. Nature of the data set: Drug binding to daptomycin-transitional Staphylococcus aureus isolate 629 bloodstream form isolated from patient with endocarditis at 40 ug after 10 mins by radial diffusion assay. It counts as ADME, organism-based.
Data set [3] deals with Staphylococcus aureus. Nature of the data set: Drug binding to methicillin-susceptible Staphylococcus aureus isolate 616 bloodstream form isolated from patient with endocarditis at 40 ug after 10 mins by radial diffusion assay. It counts as ADME, organism-based. To be noted: in vivo.
For data set [4], the system named is Staphylococcus aureus. Kind of data set: Drug binding to daptomycin-nonsusceptible Staphylococcus aureus isolate 701 bloodstream form isolated from patient with endocarditis at 40 ug after 10 mins by radial diffusion assay. It counts as ADME, organism-based.
For data set [5], the system named is Staphylococcus aureus. Nature of the data set: Drug binding to daptomycin-transitional Staphylococcus aureus isolate 629 bloodstream form isolated from patient with endocarditis at 32 ug after 10 mins by radial diffusion assay. Format: ADME, organism-based.
In data set [6] the test system is Staphylococcus aureus. Kind of data set: Antibacterial activity against methicillin-susceptible Staphylococcus aureus isolate 616 bloodstream form isolated from patient with endocarditis after 18 hrs by microdilution technique. Format: functional. The note with it: Staphylococcus aureus, 616, 18 h.
Data set [7] deals with Staphylococcus aureus. Kind of data set: Antibacterial activity against daptomycin-transitional Staphylococcus aureus isolate 629 bloodstream form isolated from patient with endocarditis after 18 hrs by microdilution technique. Format: functional. The note with it: Staphylococcus aureus, 629, 18 h.
The test system of data set [8] is Staphylococcus aureus. Nature of the data set: Drug binding to daptomycin-nonsusceptible Staphylococcus aureus isolate 703 bloodstream form isolated from patient with endocarditis at 32 ug after 10 mins by radial diffusion assay. Format: ADME, organism-based.
In data set [9] the test system is Staphylococcus aureus. Nature of the data set: Antibacterial activity against daptomycin-nonsusceptible Staphylococcus aureus isolate 701 bloodstream form isolated from patient with endocarditis after 18 hrs by microdilution technique. It counts as functional. To be noted: Staphylococcus aureus, 701, 18 h.
Data set [10] has as its system Staphylococcus aureus. Nature of the data set: Drug binding to methicillin-susceptible Staphylococcus aureus isolate 616 bloodstream form isolated from patient with endocarditis at 32 ug after 10 mins by radial diffusion assay. It counts as ADME, organism-based.
Data set [11] deals with Staphylococcus aureus. Nature of the data set: Drug binding to daptomycin-nonsusceptible Staphylococcus aureus isolate 701 bloodstream form isolated from patient with endocarditis at 32 ug after 10 mins by radial diffusion assay. It counts as ADME, organism-based.
Data set [12] deals with Staphylococcus aureus. Nature of the data set: Antibacterial activity against daptomycin-nonsusceptible Staphylococcus aureus isolate 703 bloodstream form isolated from patient with endocarditis after 18 hrs by microdilution technique. It counts as functional. The note with it: Staphylococcus aureus, 703, 18 h.

Take H-ALYKKFKKKLLKSLKRLG-OH: the Drug uptake with Staphylococcus aureus [1] was determined as 8 µg/mL; with Staphylococcus aureus [2], 11.7 µg/mL; in the data set on Staphylococcus aureus [3], 12.4 µg/mL; in the data set on Staphylococcus aureus [4], 11.7 µg/mL.

For the compound `CC(C)C[C@@H](NC(=O)[C@H](C)NC(=O)CNC(=O)[C@@H](NC=O)C(C)C)C(=O)N[C@@H](C)C(=O)N[C@@H](C(=O)N[C@H](C(=O)N[C@@H](C(=O)N[C@@H](Cc1c[nH]c2ccccc12)C(=O)N[C@H](CC(C)C)C(=O)N[C@@H](Cc1c[nH]c2ccccc12)C(=O)N[C@H](CC(C)C)C(=O)N[C@@H](Cc1c[nH]c2ccccc12)C(=O)N[C@H](CC(C)C)C(=O)N[C@@H](Cc1c[nH]c2ccccc12)C(=O)NCCO)C(C)C)C(C)C)C(C)C` [GRAMICIDIN D] (For-VGA[dL]A[dV]V[dV]W[dL]W[dL]W[dL]W-NHCH2CH2OH), the Drug uptake is 10 µg/mL in the data set with Staphylococcus aureus [5], 9 µg/mL in the data set with Staphylococcus aureus [8], 12 µg/mL in the data set with Staphylococcus aureus [10] and 11 µg/mL in the data set with Staphylococcus aureus [11]. Moreover, the MIC with Staphylococcus aureus [6], in the data set with Staphylococcus aureus [7], with Staphylococcus aureus [9] and with Staphylococcus aureus [12] was 32 µg/mL (≈ 17 µM) throughout.
